Patent US20220387403A1, “COMPOUNDS, COMPOSITIONS AND METHODS FOR TREATING NASH, NAFLD, AND OBESITY” (CVI Pharmaceuticals Limited, priority 2019, published 2022)
“Also recorded” adds a separate entry of the source.

How the values were obtained:
[1] = system: NASH hamster model; experiment: Free-choice diet-induced NASH hamster model; assay type: in vivo; details: for NAS score / fibrosis / hepatocyte ballooning: C128 100 mg/kg, elafibranor 15 mg/kg, orally QD for 5 weeks
Method: In a free-choice diet-induced NASH hamster model, hamsters were fed a free choice diet (free choice between a chow diet with normal tap water or a high fat/cholesterol diet (Safe Diets) with 10% fructose enriched tap water) for up to 20 weeks (15 weeks diet and 5 weeks treatment). After 15 weeks of diet, hamsters were randomized into 3 homogenous groups (n=10/group) and were treated with vehicle, compound 128 (C128) at 100 mg/kg, or PPAR dual agonist elafibranor 15 mg/kg orally QD for 5 weeks. […] The study results are illustrated by FIGS. 17 to 19.

[2] = system: LDLR mRNA; experiment: LDLR mRNA expression in HepG2 cells, semi-quantitative RT-PCR; assay type: cell-based, human; details: 8 hours, FIG. 3
Method: HepG2 cells obtained from American Tissue Culture Collection (Manassas, Va., USA) were seeded in 6-well culture plates at a density of 0.8×10^6 cells/well cultured in EMEM containing 0.5% FBS and were treated with each purified compound at indicated doses for 8 hours. Total RNA was isolated, and 2 μg per sample was reverse transcribed with random primers using M-MLV (Promega) at 37° C. for 1 hour. PCR was carried out at 94° C. for 30 sec, 60° C. for 30 sec, and 72° C. for 30 sec with initial activation of the enzyme at 94° C. for 1 minute. Thirty cycles were performed for LDLR and GAPDH. PCR was performed using primers HLDLR-up and HLDLR-lo for LDLR and primers HGAPDH-up and HGAPDH-lo for GAPDH. The PCR products were separated on a 1% agarose gel and the band intensity was quantitated. LDLR mRNA levels were corrected by measuring GAPDH mRNA levels.
Specific stereochemical requirements of +/−THP in the upregulation of LDLR mRNA expression were determined by a similar experiment. HepG2 cells were treated with the pure 14R-(+)-THP or the pure 14S-(−)-THP at the indicated concentrations for 24 hours. The levels of LDLR mRNA and GAPDH mRNA in untreated and the compound-treated HepG2 cells were assessed by semi-quantitative RT-PCR.

[3] = system: LDLR mRNA; experiment: LDLR mRNA expression in HepG2 cells, quantitative real-time RT-PCR; assay type: cell-based, human; details: 24 hours; for Activity on LDLR mRNA at 10 uM (fold of control) / Activity on LDLR mRNA at 40 uM (fold of control): mean ± s.d.
Method: Activities of some compounds of Formulas I, II, III, and IV on LDLR mRNA expression were determined. HepG2 cells were treated with new compounds individually at a dose less than or equal to 10 μM for 24 hours. Total RNA was harvested for quantitative real-time RT-PCR analysis using the method described in Example 16B. […] In these experiments, berberine chloride was included for comparison. […]
Total RNA was harvested for quantitative real-time RT-PCR analysis using method described in Examples 16B.
(§1) The effects of 23 compounds on the mRNA expressions of LDLR and PCSK9 were examined using quantitative real-time RT-PCR assays. HepG2 cells were treated with various compounds at 10 and 40 uM concentrations for 24 hours. Total RNA was isolated and 2 μg was used to generate cDNA in a reaction containing random primers and M-MLV at 37° C. for 1 h in a volume of 25 μl. Real-time PCR was performed on the cDNA using MCEP REALPLEX 2 SYSTEM (Eppendorf) and Universal MasterMix (Applied Biosystems). Human LDLR, PCSK9, and GAPDH Pre-Developed TaqMan Assay Reagents (Applied Biosystems) were used to assess the levels of mRNA expressions in HepG2. The levels of LDLR and PCSK9 mRNA were normalized to that of GAPDH. Each RNA samples was assayed in duplicate. The fold activity was calculated by dividing mRNA abundance in compound treated cells with that of control.

[4] = system: PCSK9 mRNA; experiment: PCSK9 mRNA expression in HepG2 cells, quantitative real-time RT-PCR; assay type: cell-based, human; details: 24 hours; for Activity on PCSK9 mRNA reduction at 10 uM (fold of control) / Activity on PCSK9 mRNA reduction at 40 uM (fold of control): mean ± s.d.
Method: The time-dependent effects of compounds of Formula I, II, III, and IV on the upregulation of LDLR mRNA and the inhibition of PCSK9 mRNA expression were examined (Horton J D, Cohen J C, Hobbs H H. “Molecular biology of PCSK9: its role in LDL metabolism” TRENDS in Biochemical Sciences 2007; 32:71-77). HepG2 cells were treated with new compounds individually at 20 uM dose for 1 day, 2 day, and 3 days. Total RNA was isolated and 2 μg was used to generate cDNA in a reaction containing random primers and M-MLV at 37° C. for 1 hour in a volume of 25 μl. Real-time PCR was performed on the cDNA using MCEP REALPLEX 2 SYSTEM (Eppendorf) and Universal MasterMix (Applied Biosystems). Human LDLR, PCSK9, and GAPDH Pre-Developed TaqMan Assay Reagents (Applied Biosystems) were used to assess the levels of mRNA expressions in HepG2. The levels of LDLR mRNA or PCSK9 mRNA were normalized to that of GAPDH. Each RNA samples was assayed in triplicate. The abundance of LDLR mRNA or PCSK9 mRNA in untreated cells was defined as 1, and the amounts of LDLR mRNA or PCSK9 from compound-treated cells were plotted relative to that value (FIG. 10). The data shown are mean±s.d.
Total RNA was harvested for quantitative real-time RT-PCR analysis using method described in Examples 16B. The fold activity was derived by dividing the amount of normalized LDLR or PCSK9 mRNA in compound-treated cells over the amount of LDLR or PCSK9 mRNA in untreated control cells.
as §1

[5] = system: NAFLD hamster model; experiment: High fat and high cholesterol diet induced NAFLD hamster model; assay type: in vivo; details: 4 weeks
Method: In a high fat and high cholesterol diet (HFHCD) induced non-alcoholic fat liver disease (NAFLD) hamster model, hamsters were fed a HFHCD for two weeks then treated for 4 weeks with C128 at 10 mg/kg, 20 mg/kg and 40 mg/kg, along with fenofibrate at 50 mg/kg as a positive control. Serum lipids and liver enzymes were measured using standard techniques. Liver tissue histopathology with Oil-red O staining and H&E staining were also performed.
In a high fat and high cholesterol diet (HFHCD) induced NAFLD hamster model, hamsters were fed a HFHCD for two weeks then treated for 4 weeks with C127 at 80 mg/kg or with fenofibrate 50 mg/kg.

[6] = system: obese Cynomolgus monkeys; experiment: Obese Cynomolgus monkeys fed a high fat diet (DEXA scan, serum parameters); assay type: in vivo; details: 40 mg/kg/day PO three weeks, then 80 mg/kg/day weeks 4-6
Excerpt: Twelve obese Cynomolgus monkeys were fed a high fat diet containing 0.5% cholesterol for 6 weeks before the treatment phase. Before the treatment with compound 127 (C127) or vehicle, all animals received a assessment of whole body and fat composition using Dual Energy X-Ray Absorptiometry (DEXA) whole body scan to measure body fat content and bone mineral density/content (reference: Black, A., Tilmont, E. M., Baer, D. J., Rumpler W. V., et. Al. Accuracy and precision of dual-energy X-ray absorptiometry for body composition measurements in rhesus monkeys. Journal of Medical Primatology, 30:94-99, 2001. Six monkeys received vehicle by PO and six monkeys received C127 at 40 mg/kg/day by PO for three weeks; from week 4-6, C127 dose was increased to 80 mg/kg/day. Dosing was ended after 6-weeks treatment, followed by DEXA scan on all animals.

[7] = 100 mg/kg orally QD for 5 weeks

`CSc1ccc(C(=O)/C=C/c2cc(C)c(OC(C)(C)C(=O)O)c(C)c2)cc1` [elafibranor, reference compound] was tested, and the NAS score [1] was “significant reduction”, the fibrosis [1] was “reduced fibrosis, although to a lesser degree” and the hepatocyte ballooning [1] was “reduced”.

With `COc1cc2c(cc1OC)[C@H]1Cc3ccc(OC)c(OC)c3CN1CC2` [14R-(+)-THP, 14R-(+)-tetrahydropalmatine] the “effects on LDLR mRNA expression (in words)” value (“effects” below) [2] was “potent and dose-dependent effects”.

In the case of `COc1cc2c(cc1OC)C1Cc3ccc(OC)c(OS(=O)(=O)c4ccccc4)c3CN1CC2` (stereo not drawn) [Compound 91, 2,3,10-trimethoxy-5,6,7,8,13,13a-hexahydroisoquinolino[2,1-b]isoquinolin-9-yl benzenesulfonate], the “LDLR mRNA expression vs concentration (in words)” value ([3]; FIG. 15A) is reported as “dose-dependently increases” and the “PCSK9 mRNA expression vs concentration (in words)” value ([4]; FIG. 15B) is reported as “inhibits”.

For `COc1ccc2c(c1OS(=O)(=O)c1cccc(F)c1)CN1CCc3cc4c(cc3C1C2)OCCO4` (stereo not drawn) [Compound 129, 11-Methoxy-6,7,8,9,14,14a-hexahydro-2H,3H-1,4-dioxano[5,6-g]isoquinolino[3,2-a]isoquinolin-10-yl 3-fluorobenzenesulfonate], the “Activity on LDLR mRNA at 10 uM (fold of control)” value [3] was 2.49 ± 0.18 fold of control, the “Activity on LDLR mRNA at 40 uM (fold of control)” value [3] was 1.99 ± 0.13 fold of control and the “Activity on PCSK9 mRNA reduction at 10 uM (fold of control)” value [4] was 1.57 ± 0.07 fold of control. For the same compound, the “Activity on PCSK9 mRNA reduction at 40 uM (fold of control)” value [4] was 1.68 ± 0.41 fold of control.

With `COc1ccc2c(c1OS(=O)(=O)c1cccc(F)c1)CN1CCc3cc(C)ccc3C1C2` (stereo not drawn) [Compound 130, 10-Methoxy-3-methyl-5,6,7,8,13,13a-hexahydroisoquinolino[2,1-b]isoquinolin-9-yl 3-fluroobenzenesulfonate] the “Activity on LDLR mRNA at 10 uM (fold of control)” value [3] was 4.29 ± 0.65 fold of control, the “Activity on LDLR mRNA at 40 uM (fold of control)” value [3] was 9.00 ± 1.49 fold of control and the “Activity on PCSK9 mRNA reduction at 10 uM (fold of control)” value [4] was 2.11 ± 0.11 fold of control.

`COc1cc2c(cc1OCCO)C1Cc3ccc(OC)c(OS(=O)(=O)c4ccccc4)c3CN1CC2` (stereo not drawn) [Compound 143, 2-(2-hydroxyethoxy)-3,10-dimethoxy-5,6,7,8,13,13a-hexahydroisoquinolino[2,1-b]isoquinolin-9-yl benzenesulfonate] was tested, and the “Activity on LDLR mRNA at 10 uM (fold of control)” value [3] was 1.87 ± 0.03 fold of control, the “Activity on LDLR mRNA at 40 uM (fold of control)” value [3] was 14.97 ± 1.68 fold of control and the “Activity on PCSK9 mRNA reduction at 10 uM (fold of control)” value [4] was 1.09 ± 0.09 fold of control.

With `COc1cc2c(cc1OC)[C@H]1[C@@H](C)c3ccc(OC)c(OC)c3CN1CC2` [14R,13S-(+)-CRDL, 14R,13S-(+)-corydaline] the “effects” value [2] was “potent and dose-dependent effects”.

In the case of `COc1ccc2c(c1)CCN1Cc3c(ccc(OC)c3OS(=O)(=O)c3cccc(F)c3)CC21` (stereo not drawn) [Compound 128, 3,10-dimethoxy-5,6,7,8,13,13a-hexahydroisoquinolino[2,1-b]isoquinolin-9-yl 3-fluorobenzenesulfonate], the “lipid droplets in the hepatocytes and cellular inflammation (H&E)” value ([5]; 20 mg/kg and 40 mg/kg groups) is reported as “alleviated to varying degrees”, the “hepatocyte lipid droplet, hepatocyte ballooning and cellular inflammation (H&E)” value ([5]; 40 mg/kg group) is reported as “significantly reduced” and the “circulating cholesterol and triglycerides (serum TC, LDL-C, TG)” value ([5]; C128 10, 20 and 40 mg/kg) is reported as “significantly reduced”. The “diet induced elevations of liver enzymes (ALT, AST, ALP)” value ([5]; C128 10, 20 and 40 mg/kg) was “significantly reduced”, the “fat accumulation in liver tissues” value ([5]; C128 10, 20 and 40 mg/kg) was “significantly reduced” and the “Activity on LDLR mRNA at 10 uM (fold of control)” value [3] was 7.52 ± 0.26 fold of control. For the same compound, the “Activity on LDLR mRNA at 40 uM (fold of control)” value [3] was 13.36 ± 0.46 fold of control, the “Activity on PCSK9 mRNA reduction at 40 uM (fold of control)” value [4] was 0.86 ± 0.029 fold of control and the inflammation score [1, 7] was “trend towards lower”. For the same compound, the steatosis score [1, 7] was “trend towards lower”, the NAS score [1] was “significant reduction” and the fibrosis [1] was “significantly lowered; also recorded: not detected”. For the same compound, the hepatocyte ballooning [1] was “significantly lowered”.

With `COc1cc2c(cc1O)CCN1Cc3c(ccc(OC)c3OC)CC21` (stereo not drawn) [14R-(+)-CRPM, 14R-(+)-corypalmine] the “effects” value [2] was “potent and dose-dependent effects”.

`COc1cc2c(cc1OC)C1Cc3ccc(OC)c(OS(=O)(=O)c4cccc(F)c4)c3CN1CC2` (stereo not drawn) [Compound 127, 2,3,10-trimethoxy-5,6,7,8,13,13a-hexahydroisoquinolino[2,1-b]isoquinolin-9-yl 3-fluorobenzenesulfonate] was tested, and the “hepatocyte lipid droplet vacuoles, cell and neutrophil infiltration (H&E)” value ([5]; C127 80 mg/kg) was “reduced”, the hypolipidemic effect ([5]; C127 80 mg/kg) was “significant hypolipidemic effect” and the “lipid deposition in the liver” value ([5]; C127 80 mg/kg) was “effectively reduced”. For the same compound, the “body weight, BMI and body fat (DEXA)” value [6] was “reduced”, the “bone mineral content (DEXA)” value [6] was “improved” and the “liver enzyme ALT” value [6] was “significant reduction”. The “serum LDL-C, TC” value [6] was “trend in reducing”, the “Activity on LDLR mRNA at 10 uM (fold of control)” value [3] was 1.80 ± 0.13 fold of control and the “Activity on LDLR mRNA at 40 uM (fold of control)” value [3] was 2.38 ± 0.38 fold of control. The “Activity on PCSK9 mRNA reduction at 10 uM (fold of control)” value [4] was 0.197 ± 0.014 fold of control and the “Activity on PCSK9 mRNA reduction at 40 uM (fold of control)” value [4] was 0.192 ± 0.016 fold of control.
